Measured values: patent publication US20220073536A1 (Rigel Pharmaceuticals, Inc., priority 2003, published 2022)
Counter-ions that a name gives are not always drawn. Like-named read-outs stand apart in the source and are kept apart here.

Test system: cultured human mast cells (CHMC)
Test: CHMC low cell density IgE activation: tryptase assay
Format: cell-based
Conditions: IgE activation
In short: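 Anti-IgE-driven degranulation of cultured human mast cells at low density, 1000–1500 cells/well, was induced over 30 min at 37 °C. It was scored by supernatant tryptase activity on a fluorogenic substrate.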

[1] = low cell density, 3 pt, read-out: LD Tryptase, CHMC, IgE, 3 pt
[2] = Homo sapiens, Mast cell, low cell density, 3 pt, read-out: LD Tryptase, CHMC, IgE, 3 pt
[3] = Homo sapiens, Mast cell, low cell density, 8 pt, read-out: LD Tryptase, CHMC, IgE, 8 pt
[4] = low cell density CHMC, tryptase release, 3 point, read-out: LD Tryptase, CHMC, IgE, 3 pt
[5] = low cell density CHMC, tryptase release, 8 point, read-out: LD Tryptase, CHMC, IgE, 8 pt
[6] = Homo sapiens, Mast cell, low cell density CHMC, tryptase, 3 pt, read-out: LD Tryptase, CHMC, IgE, 3 pt

CC(C)(C)c1nnc(-c2cccc(Nc3ncc(F)c(Nc4ccc5c(c4)OCCO5)n3)c2)o1 [Compound 531, N2-[ (2-tert-Butyl-1,3,4-oxadiazol-5-yl)phenyl]-N4-(3,4-ethylenedioxyphenyl)-5-fluoro-2,4-pyrimidinediamine]
IC50 [1]: < 10 µM

CC(C)(C)c1nnc(-c2cccc(Nc3ncc(F)c(Nc4cccc(O)c4)n3)c2)o1 [Compound 532, N2-[ (2-tert-Butyl-1,3,4-oxadiazol-5-yl)phenyl]-5-fluoro-N4-(3-hydroxyphenyl)-2,4-pyrimidinediamine]
IC50 [1]: < 10 µM

CN(c1ccc2c(c1)OCCO2)c1nc(NN)ncc1F [Compound 533, N4-(3,4-Ethylenedioxyphenyl)-5-fluoro-N4-methyl-2-hydrazine-4-pyrimidineamine]
IC50 [1]: > 10 µM

Cc1noc(C)c1Nc1nc(Nc2cccc(-c3ncco3)c2)ncc1F [Compound 534, N4-(3,5-Dimethylisoxazol-4-yl)-5-fluoro-N2-[3-(oxazol-2-yl)phenyl]-2,4-pyrimidinediamine]
IC50 [2]: < 10 µM

COC(=O)c1cc(Nc2ncc(F)c(Nc3c(C)noc3C)n2)cc(-c2ncco2)c1 [Compound 535]
IC50 [2]: < 10 µM

CC1(C)Oc2ccc(Nc3nc(Nc4ccc5nc(C(F)(F)F)[nH]c5c4)ncc3F)cc2NC1=O [Compound 539, N4-(2,2-Dimethyl-3-oxo-4H-benz[1,4]oxazin-6-yl)-5-fluoro-N2-(2-trifluoromethyl-3H-benzimidazol-5-yl)-2,4-pyrimidinediamine p-Toluenesulfonic Acid Salt]
IC50 [3]: < 10 µM

COc1cc(Nc2ncc(F)c(Nc3ccc4c(c3)NC(=O)C(C)(C)O4)n2)cc(OC)c1OC [Compound 543]
IC50 [2]: < 10 µM | IC50 [3]: < 10 µM

COc1cc(Nc2ncc(F)c(Nc3ccc(OC)c(N)n3)n2)cc(OC)c1 [Compound 544]
IC50 [2]: < 10 µM

COc1ccc(Nc2nc(Nc3cc(OC)c(OC)c(OC)c3)ncc2F)nc1N [Compound 545]
IC50 [2]: < 10 µM

COC(=O)c1cc2cc(Nc3ncc(F)c(Nc4ccc(OC)c(N)n4)n3)ccc2o1 [Compound 546]
IC50 [2]: < 10 µM

CNC(=O)COc1cccc(Nc2ncc(F)c(Nc3ccc(OC)c(N)n3)n2)c1 [Compound 547, N4-(2-Amino-3-methoxypyrid-6-yl)-5-fluoro-N2[3-(N-methylaminocarbonylmethyleneoxy)phenyl]-2,4-pyrimidinediamine]
IC50 [1]: < 10 µM

COc1c(Cl)cc(Nc2nc(Nc3cc(Cl)c(O)c(Cl)c3)ncc2F)cc1Cl [Compound 548]
IC50 [2]: < 10 µM | IC50 [3]: < 10 µM

COc1cc(Nc2ncc(F)c(Nc3cc(C)cc(C)c3)n2)cc(OC)c1OC [Compound 553]
IC50 [3]: < 10 µM

Cc1cc(C)cc(Nc2nc(Nc3cc(C)c(O)c(Cl)c3)ncc2F)c1 [Compound 554]
IC50 [3]: < 10 µM

Cc1cc(C)cc(Nc2nc(Nc3cc(Cl)cc(Cl)c3)ncc2F)c1 [Compound 556]
IC50 [2]: < 10 µM | IC50 [3]: < 10 µM

CNC(=O)c1cc2cccc(Nc3ncc(F)c(Nc4cc(C)cc(C)c4)n3)c2[nH]1 [Compound 557, N4-(3,5-Dimethylphenyl)-5-fluoro-N2-[2-(N-methylamino)carbonylindol-7-yl]-2,4-pyrimidinediamine]
IC50 [3]: > 10 µM

CNC(=O)c1cc2cccc(Nc3ncc(F)c(Nc4cc(OC)cc(C(F)(F)F)c4)n3)c2[nH]1 [Compound 558, 5-Fluoro-N4-(3-methoxy-5-trifluoromethylphenyl)-N2-[2-(N-methylamino)carbonylindol-7-yl]-2,4-pyrimidinediamine]
IC50 [2]: < 10 µM

Cc1cc(C)cc(Nc2nc(Nc3cc(Cl)c(O)c(Cl)c3)ncc2F)c1 [Compound 559]
IC50 [2]: < 10 µM | IC50 [3]: < 10 µM

Cc1cc(C)cc(Nc2nc(Nc3cc(C)c(Cl)c(C)c3)ncc2F)c1 [Compound 560]
IC50 [2]: > 10 µM

Oc1c(Cl)cc(Nc2ncc(F)c(Nc3ccc4c(c3)OC(F)(F)O4)n2)cc1Cl [Compound 564]
IC50 (low cell density, 8 pt, read-out: LD Tryptase, CHMC, IgE, 8 pt): < 10 µM

Fc1cnc(Nc2cc(Cl)cc(Cl)c2)nc1Nc1ccc2c(c1)OC(F)(F)O2 [Compound 565]
IC50 [4]: < 10 µM

Cc1cc(Nc2ncc(F)c(Nc3ccc4c(c3)OC(F)(F)O4)n2)cc(C)c1Cl [Compound 566]
IC50 [4]: > 10 µM

COc1cc(Nc2ncc(F)c(Nc3ccc4c(c3)OC(F)(F)O4)n2)cc(C(F)(F)F)c1 [Compound 568]
IC50 [4]: > 10 µM

Cc1cc(Nc2ncc(F)c(Nc3ccc4c(c3)OC(F)(F)O4)n2)cc(C(F)(F)F)c1 [Compound 569]
IC50 [4]: < 10 µM

CNC(=O)COc1c(C)cc(Nc2ncc(F)c(Nc3ccc(OC)c(Cl)c3)n2)cc1C [Compound 571, N4-(3-Chloro-4-methoxyphenyl)-N2-[3,5-dimethyl-4-(N-methylamino)carbonylmethyleneoxyphenyl]-5-fluoro-2,4-pyrimidinediamine]
IC50 [4]: < 10 µM | IC50 [5]: < 10 µM

CNC(=O)COc1c(C)cc(Nc2ncc(F)c(Nc3ccc4c(c3)OCCO4)n2)cc1C [Compound 572, N2-[3,5-dimethyl-4-(N-methylamino)carbonylmethyleneoxyphenyl]-N4-(3,4-ethylenedioxyphenyl)-5-fluoro-2,4-pyrimidinediamine]
IC50 [4]: < 10 µM | IC50 [5]: < 10 µM

CNC(=O)COc1c(C)cc(Nc2ncc(F)c(Nc3cc(OC)cc(OC)c3)n2)cc1C [Compound 573, N4-(3,5-Dimethoxyphenyl)-N2-[3,5-dimethyl-4-(N-methylamino)carbonylmethyleneoxyphenyl]-5-fluoro-2,4-pyrimidinediamine]
IC50 [4]: < 10 µM | IC50 [5]: < 10 µM

CNC(=O)COc1c(C)cc(Nc2ncc(F)c(Nc3ccc4c(c3)NC(=O)C(C)(C)O4)n2)cc1C [Compound 574, N2-[3,5-dimethyl-4-(N-methylamino)carbonylmethyleneoxyphenyl]-N4-(2,2-dimethyl-3-oxo-4H-benz[1,4]oxazin-6-yl)-5-fluoro-2,4-pyrimidinediamine]
IC50 [4]: < 10 µM | IC50 [5]: < 10 µM

CNC(=O)COc1c(C)cc(Nc2ncc(F)c(Nc3ccc4c(c3)OCO4)n2)cc1C [Compound 575, N2-[3,5-dimethyl-4-(N-methylamino)carbonylmethyleneoxyphenyl]-5-fluoro-N4-(3,4-methylenedioxyphenyl)-2,4-pyrimidinediamine]
IC50 [4]: < 10 µM | IC50 [5]: < 10 µM

CNC(=O)Cn1ccc2cc(Nc3ncc(F)c(Nc4ccc(OCCO)nc4)n3)ccc21 [Compound 650, 5-Fluoro-N4-[2-(2-hydroxyethyleneoxy)pyrid-5-yl]-N2-[1-(N-methylamino)carbonylmethyleneindol-5-yl]-2,4-pyrimidinediamine]
IC50 [5]: < 10 µM

CNC(=O)Cn1ccc2cc(Nc3ncc(F)c(Nc4ccc(OC(F)(F)F)c(Cl)c4)n3)ccc21 [Compound 651, N4-(3-Chloro-4-trifluoromethoxyphenyl)-5-fluoro-N2-[1-(N-methylamino)carbonylmethyleneindol-5-yl]-2,4-pyrimidinediamine]
IC50 [5]: < 10 µM

CNC(=O)Cn1ccc2cc(Nc3ncc(F)c(Nc4ccc(Cl)c(OC)c4)n3)ccc21 [Compound 653, N4-(4-Chloro-3-methoxyphenyl)-5-fluoro-N2-[1-(N-methylamino)carbonylmethyleneindol-5-yl]-2,4-pyrimidinediamine]
IC50 [5]: < 10 µM

CNC(=O)Cn1ccc2cc(Nc3ncc(F)c(Nc4ccc(OC)c(Cl)c4)n3)ccc21 [Compound 654, N4-(3-Chloro-4-methoxyphenyl)-5-fluoro-N2-[1-(N-methylamino)carbonylmethyleneindol-5-yl]-2,4-pyrimidinediamine]
IC50 [5]: < 10 µM

CNC(=O)Cn1ccc2cc(Nc3ncc(F)c(Nc4ccc5c(c4)OCCO5)n3)ccc21 [Compound 655, N4-(3,4-Ethylenedioxyphenyl)-5-fluoro-N2-[1-(N-methylamino)carbonylmethyleneindol-5-yl]-2,4-pyrimidinediamine]
IC50 [5]: < 10 µM

CNC(=O)Cn1ccc2cc(Nc3ncc(F)c(Nc4ccc(C(=O)NC)c(Cl)c4)n3)ccc21 [Compound 656, N4-[3-Chloro-4-(N-methylamino)carbonylphenyl]-5-fluoro-N2-[1-(N-methylamino)carbonylmethyleneindol-5-yl]-2,4-pyrimidinediamine]
IC50 [5]: < 10 µM

COc1cc(Nc2nc(Nc3cccc(-c4ncco4)c3)ncc2F)cc(OC)c1OC [Compound 667]
IC50 (Homo sapiens, Mast cell, low cell density CHMC, tryptase release, 3 point, read-out: LD Tryptase, CHMC, IgE, 3 pt): < 10 µM

COc1ccc(Nc2ncc(F)c(Nc3ccc4c(c3)OCCO4)n2)c(OC)c1OC [Compound 668, N4-(3,4-Ethylenedioxyphenyl)-5-fluoro-N2-(2,3,4-trimethoxyphenyl)-2,4-pyrimidinediamine]
IC50 [6]: < 10 µM

COc1ccc(Nc2nc(Nc3ccc(OC)c(OC)c3OC)ncc2F)cc1Cl [Compound 669, N4-(3-Chloro-4-methoxyphenyl)-5-fluoro-N2-(2,3,4-trimethoxyphenyl)-2,4-pyrimidinediamine]
IC50 [6]: > 10 µM

COc1cc(Nc2nc(Nc3ccc(OC)c(OC)c3OC)ncc2F)ccc1Cl [Compound 670]
IC50 [6]: > 10 µM

COc1ccc(Nc2ncc(F)c(Nc3ccc(OC(F)(F)F)c(Cl)c3)n2)c(OC)c1OC [Compound 671]
IC50 [6]: < 10 µM

COc1ccc(Nc2ncc(F)c(Nc3ccc4c(c3)NC(=O)C(C)(C)O4)n2)c(OC)c1OC [Compound 672]
IC50 [6]: < 10 µM
